Data on four molecules can be found in patent US20080227774A1, “5,5-DISUBSTITUTED-INDOLIZINONE COMPOUNDS” (priority 2007, published 2008).

The target in this assay is NS5B polymerase (Hepatitis C virus genotype 1b, UniProt P26663). Nature of the assay: HCV polymerase inhibition assay (FlashPlate). The assay is classed as biochemical. Conditions: 20 nM enzyme, 75 min at 28° C. The protocol:
Compounds were tested for HCV polymerase inhibition. Assays were performed in a 96-well streptavidin-coated FlashPlate using 20 nM enzyme, 0.5 μCi of [α-^33P]GTP, 0.6 μM GTP, and 250 nM 5′biotinylated oligo (rG13)/poly rC in 20 mM Tris-HCl, pH 7.5, 5 mM MgCl2, 5 mM dithiothreitol, 0.1 g/L bovine serum albumin, and 100 U/ml RNAse inhibitor. The reaction was stopped by aspiration after 75 min at 28° C. and the plate was washed several times. After washing and drying the plate, incorporated radioactivity was counted using a Microbeta scintillation counter. IC50 values were calculated relative to the uninhibited control and inhibition data were fitted to a 4-parameter IC50 equation. For very potent inhibitors, the data were fitted to a tight binding quadratic equation to obtain IC50 values.

What is called IC50 is the point on the concentration scale where inhibition reaches its midpoint. Low values mean greater potency, high ones weaker potency.

Sequence of NS5B polymerase (P26663 2420-3010): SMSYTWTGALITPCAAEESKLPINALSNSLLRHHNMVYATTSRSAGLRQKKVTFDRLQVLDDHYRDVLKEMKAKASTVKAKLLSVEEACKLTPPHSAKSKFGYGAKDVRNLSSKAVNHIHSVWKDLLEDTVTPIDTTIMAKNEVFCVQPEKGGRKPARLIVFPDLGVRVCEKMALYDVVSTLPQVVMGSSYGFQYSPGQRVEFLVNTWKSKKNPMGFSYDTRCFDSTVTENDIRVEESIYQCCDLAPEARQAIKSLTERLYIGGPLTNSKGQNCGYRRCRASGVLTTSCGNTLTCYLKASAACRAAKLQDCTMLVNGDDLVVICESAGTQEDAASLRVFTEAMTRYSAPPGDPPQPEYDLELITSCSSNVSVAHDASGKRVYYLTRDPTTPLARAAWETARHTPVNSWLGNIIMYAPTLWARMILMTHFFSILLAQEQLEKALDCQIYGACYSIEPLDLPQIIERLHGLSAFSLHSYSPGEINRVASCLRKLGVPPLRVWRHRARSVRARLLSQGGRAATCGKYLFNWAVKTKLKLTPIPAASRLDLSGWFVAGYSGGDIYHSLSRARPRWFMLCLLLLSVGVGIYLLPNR

Turning to `CC(C)CCC1(C)C(=O)C(C2=Nc3ccccc3S(=O)(=O)N2)=C(O)c2cccn21` (stereo not shown) [Example 1, 7-(1,1-Dioxo-1,2-dihydro-1λ^6-benzo[1,2,4]thiadiazin-3-yl)-8-hydroxy-5-methyl-5-(3-methylbutyl)indolizin-6-one], the half-maximal inhibitory concentration (IC50) was below 50 µM.

`CC(C)CCC1(C)C(=O)C(C2=NS(=O)(=O)c3cc(NS(C)(=O)=O)ccc3N2)=C(O)c2cccn21` (stereo not shown) [Example 2, N-{3-[8-Hydroxy-5-methyl-5-(3-methylbutyl)-6-oxo-5,6-dihydroindolizin-7-yl]-1,1-dioxo-1,2-dihydro-1λ^6-benzo[1,2,4]thiadiazin-7-yl}methanesulfonamide] showed a half-inhibitory concentration (IC50) below 50 µM. Next, `C[C@]1(Cc2ccc(F)cc2)C(=O)C(C2=NS(=O)(=O)c3cc(NS(C)(=O)=O)ccc3N2)=C(O)c2cccn21` [Example 3, N-{3-[5-(S)-(4-Fluoro-benzyl)-8-hydroxy-5-methyl-6-oxo-5,6-dihydro-indolizin-7-yl]-1,1-dioxo-1,4-dihydro-1λ^6-benzo[1,2,4]thiadiazin-7-yl}-methanesulfonamide]: below 50 µM. Under `CC1(Cc2ccc(F)c(Cl)c2)C(=O)C(C2=NS(=O)(=O)c3cc(NS(C)(=O)=O)ccc3N2)=C(O)c2cccn21` (stereo not shown) [Example 4, N-{3-[5-(3-Chloro-4-fluoro-benzyl)-8-hydroxy-5-methyl-6-oxo-5,6-dihydro-indolizin-7-yl]-1,1-dioxo-1,4-dihydro-1λ^6-benzo[1,2,4]thiadiazin-7-yl}-methanesulfonamide] stands below 50 µM.
